Holding throughout (assay): stopped-flow CO2 hydrase assay
Common to all, as to assay type: biochemical

The target of one experiment is T1, hCA VII (Homo sapiens, UniProt P43166).
T1 construct: gene CA7; recombinant, obtained in-house; cytosolic alpha-CA
As to conditions: read-out: KI (nM) ^a / hCA VII (α-CA). An excerpt: stopped-flow CO2 hydrase assay on hCA VII

The next experiment addresses MtCA2 (Mycobacterium tuberculosis, UniProt P9WPJ9). The conditions noted are these: read-out: KI (nM) ^a / MtCA2 (β-CA).
For another experiment, the target named is T2, MtCA3 (Mycobacterium tuberculosis, UniProt P96878).
T2 construct: gene Rv3273
As to conditions: CO2 […]; […] TRIS pH […]; […] Na2SO4; […] h preincubation at room temperature; read-out: KI (nM) ^a / MtCA3 (β-CA). From the text:
stopped-flow CO2 hydrase assay on MtCA3

The next experiment concerns the target T3, hCA II (Homo sapiens, UniProt P00918).
T3 construct: gene CA2; recombinant, obtained in-house; cytosolic alpha-CA
The conditions noted are these: read-out: KI (nM) ^a / hCA II (α-CA). An excerpt: stopped-flow CO2 hydrase assay on hCA II

Another experiment concerns the target T4, hCA I (Homo sapiens, UniProt P00915).
T4 construct: gene CA1; recombinant, obtained in-house; cytosolic alpha-CA
As to conditions: read-out: KI (nM) ^a / hCA I (α-CA). An excerpt:
stopped-flow CO2 hydrase assay on hCA I

A further experiment concerns the target MtCA1 (Mycobacterium tuberculosis, UniProt P9WPJ7). The conditions noted are these: read-out: KI (nM) ^a / MtCA1 (β-CA).

T2 sequence (P96878 555-764 limits assumed): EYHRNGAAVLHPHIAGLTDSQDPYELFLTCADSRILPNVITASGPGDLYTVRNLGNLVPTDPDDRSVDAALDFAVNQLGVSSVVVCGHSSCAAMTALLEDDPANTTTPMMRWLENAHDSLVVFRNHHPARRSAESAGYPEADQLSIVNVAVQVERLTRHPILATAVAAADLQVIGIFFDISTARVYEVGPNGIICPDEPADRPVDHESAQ
Sequence of MtCA1 (P9WPJ7 2-163): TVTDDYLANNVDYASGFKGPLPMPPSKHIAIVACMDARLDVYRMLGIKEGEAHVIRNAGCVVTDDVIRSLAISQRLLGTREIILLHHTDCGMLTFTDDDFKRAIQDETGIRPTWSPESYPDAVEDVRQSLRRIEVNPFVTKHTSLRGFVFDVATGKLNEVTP
T4 sequence (P00915 2-261): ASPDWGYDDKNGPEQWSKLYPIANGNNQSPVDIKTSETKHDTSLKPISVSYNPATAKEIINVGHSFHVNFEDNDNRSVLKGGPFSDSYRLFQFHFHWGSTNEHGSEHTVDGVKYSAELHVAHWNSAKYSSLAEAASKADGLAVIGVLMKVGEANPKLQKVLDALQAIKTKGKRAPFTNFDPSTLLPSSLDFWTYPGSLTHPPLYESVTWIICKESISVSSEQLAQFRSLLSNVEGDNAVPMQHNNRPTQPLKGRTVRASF
Sequence of MtCA2 (P9WPJ9 whole entry, looked up): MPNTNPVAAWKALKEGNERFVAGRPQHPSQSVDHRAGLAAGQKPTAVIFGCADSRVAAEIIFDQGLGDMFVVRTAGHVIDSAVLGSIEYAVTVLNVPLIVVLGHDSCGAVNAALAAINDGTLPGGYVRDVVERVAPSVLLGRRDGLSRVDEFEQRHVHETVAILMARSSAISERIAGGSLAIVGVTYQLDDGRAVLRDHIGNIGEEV
T1 sequence (P43166 whole entry): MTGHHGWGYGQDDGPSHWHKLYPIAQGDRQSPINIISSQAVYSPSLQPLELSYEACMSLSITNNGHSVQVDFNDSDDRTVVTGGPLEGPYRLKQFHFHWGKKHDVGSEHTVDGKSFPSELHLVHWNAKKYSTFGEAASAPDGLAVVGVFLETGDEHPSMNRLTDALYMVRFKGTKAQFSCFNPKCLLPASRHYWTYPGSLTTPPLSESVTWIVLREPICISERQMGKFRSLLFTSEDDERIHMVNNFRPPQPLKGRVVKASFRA

Regarding `CC(=O)NC(=S)Nc1ccc(S(N)(=O)=O)cc1` [3a, N-((4-Sulfamoylphenyl)carbamothioyl)acetamide], the Ki is 13.5 nM on hCA VII; 4.4 nM at MtCA2; 610 nM at MtCA3; 78.7 nM at hCA II; 85.2 nM at hCA I; 897 nM on MtCA1.

On to `CCC(=O)NC(=S)Nc1ccc(S(N)(=O)=O)cc1` [3b, N-((4-Sulfamoylphenyl)carbamothioyl)propionamide], for which the Ki at hCA VII stood at 2.8 nM; on MtCA2, 5.4 nM; at MtCA3 it was 806 nM; on hCA II, 35.9 nM; at hCA I, 58.3 nM; at MtCA1, 252 nM.

Turning to `CCCC(=O)NC(=S)Nc1ccc(S(N)(=O)=O)cc1` [3c, N-((4-Sulfamoylphenyl)carbamothioyl)butyramide], the Ki on hCA VII was found to be 3 nM; at MtCA2 it was 7.6 nM; on MtCA3, 9400 nM; on hCA II, 7.7 nM; on hCA I, 50.3 nM; on MtCA1, 784 nM.

For `NS(=O)(=O)c1ccc(NC(=S)NC(=O)C2CC2)cc1` [3d, N-((4-Sulfamoylphenyl)carbamothioyl)cyclopropanecarboxamide], the Ki at hCA VII is 1.9 nM; on MtCA2, 4.2 nM; at MtCA3 it was 6280 nM; on hCA II, 384 nM; at hCA I it was 87.4 nM; at MtCA1 it was 95.2 nM.

Take `CC(C)C(=O)NC(=S)Nc1ccc(S(N)(=O)=O)cc1` [3e, N-((4-sulfamoylphenyl)carbamothioyl)isobutyramide]: the Ki on hCA VII came to 1.1 nM; on MtCA2, 57.1 nM; on MtCA3, 3670 nM; on hCA II, 8.9 nM; at hCA I, 72.7 nM; on MtCA1, 369 nM.

Regarding `CC(C)CC(=O)NC(=S)Nc1ccc(S(N)(=O)=O)cc1` [3f, 3-methyl-N-((4-sulfamoylphenyl)carbamothioyl)butanamide], the Ki amounted to 2.1 nM on hCA VII; 21.1 nM on MtCA2; 8390 nM at MtCA3; 5.3 nM on hCA II; 36.4 nM on hCA I; 782 nM on MtCA1.

Regarding `CCCCCC(=O)NC(=S)Nc1ccc(S(N)(=O)=O)cc1` [3g, N-((4-sulfamoylphenyl)carbamothioyl)hexanamide], the Ki at hCA VII was determined as 3.2 nM; at MtCA2, 3.4 nM; on MtCA3, 719 nM; at hCA II it was 46.5 nM; on hCA I, 13.3 nM; at MtCA1, 3510 nM.

With `NS(=O)(=O)c1ccc(NC(=S)NC(=O)C2CCCCC2)cc1` [3h, N-((4-Sulfamoylphenyl)carbamothioyl)cyclohexanecarboxamide], the Ki on hCA VII turned out to be 2.2 nM; on MtCA2, 8.4 nM; on MtCA3 it was 7140 nM; on hCA II it was 21.7 nM; at hCA I, 67.8 nM; on MtCA1, 6670 nM.

As to `NS(=O)(=O)c1ccc(NC(=S)NC(=O)Cc2cccc3ccccc23)cc1` [3i, 2-(Naphthalen-1-yl)-N-((4-sulfamoylphenyl)carbamothioyl)acetamide], the Ki on hCA VII came to 2.6 nM; at MtCA2, 4.6 nM; at MtCA3, 2130 nM; on hCA II, 9.7 nM; on hCA I, 60.5 nM; on MtCA1 it was 962 nM.

Take `C/C=C/C(=O)NC(=S)Nc1ccc(S(N)(=O)=O)cc1` [3j, N-((4-Sulfamoylphenyl)carbamothioyl)but-2-enamide]: the Ki was determined as 10.3 nM on hCA VII; 9.2 nM on MtCA2; 851 nM on MtCA3; 64.6 nM on hCA II; 69.4 nM on hCA I; 2420 nM on MtCA1.

`NS(=O)(=O)c1ccc(NC(=S)NC(=O)/C=C/c2ccccc2)cc1` [3k, N-((4-Sulfamoylphenyl)carbamothioyl)cinnamamide]: the Ki is 3.1 nM on hCA VII; 8.1 nM on MtCA2; 447 nM at MtCA3; 9.2 nM on hCA II; 47.9 nM on hCA I; 224 nM at MtCA1.

`NS(=O)(=O)c1ccc(NC(=S)NC(=O)c2ccc([N+](=O)[O-])cc2)cc1` [3l, 4-nitro-N-((4-sulfamoylphenyl)carbamothioyl)benzamide]: the Ki at hCA VII was determined as 2.5 nM; on MtCA2, 4.8 nM; on MtCA3, 5280 nM; on hCA II, 6.8 nM; at hCA I, 87.6 nM; on MtCA1, 868 nM.

These data come from paper PMC10222120, “Inhibition Studies on Human and Mycobacterial Carbonic Anhydrases with N-((4-Sulfamoylphenyl)carbamothioyl) Amides” (Molecules, 2023).
